According to patent US20260070929A1, “METHODS AND COMPOSITIONS FOR MODULATING KRAS(G12D)” (Ranok Therapeutics (Hangzhou) Co. LTD., priority 2022, published 2026):

Key:
KRAS(G12D)/SOS1 = target: T1, KRAS(G12D)/SOS1 (Homo sapiens, UniProt P01116, G12D); experiment: KRAS(G12D)/SOS1 homogeneous time-resolved fluorescence (HTRF) assay; assay type: binding; conditions: absence of GTP; 4° C., 3 hr
T1 construct: purchased Cisbio 63ADK000CB17PEH
In short: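 HTRF kit assay of compound-blocked KRAS(G12D)–SOS1 interaction, run without GTP. Compounds were tested as 3-fold dilutions from 20 µM to 1.02 nM and incubated with the reaction components for 3 hr at 4 °C, sealed. IC50 was taken as the concentration giving 50% of maximal inhibition.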

[1] = tested on: ASPC1 pancreatic adenocarcinoma cells [homozygous G12D]; experiment: Cancer cell line proliferation (CellTiter-Glo), ASPC1; assay type: cell-based; conditions: Homo sapiens, ASPC1, 72 h, 72 hr treatment, read-out: ASPC-1 CTG (EC50)
Protocol: The following cancer cell lines were employed: AGS gastric carcinoma [heterozygous G12D](ATCC, CRL-1739); A-427 lung carcinoma [heterozygous G12D](ATCC, HTB-53); ASPC1 pancreatic adenocarcinoma [homozygous G12D](ATCC, CRL-1682) and SW1990 pancreatic adenocarcinoma [homozygous G12D](ATCC CRL-2172). Cell lines were cultured essentially according to ATCC recommendations.
AGS, A-427, ASPC1, SW1990, and GP2D cells were plated in 96-well tissue culture plates at 4,000 cells/well and incubated at 37° C./5% CO2 for 72 hr in 100 μl of media. 3-fold serial dilutions of each test compound were prepared ranging from 20 μM to 1.02 nM. Each cell line was then treated with test compounds at various concentrations with a final concentration of 0.5% DMSO/well, and then incubated at 37° C./5% CO2 for 72 hr. 100 µl of CellTiter-Glo® Reagent (Promega Corporation, Madison, WI) was added to each well and processed according manufacturer's protocol. Results were analyzed and EC50 values were calculated in GraphPad 7 software.

[2] = tested on: A-427 lung carcinoma cells [heterozygous G12D]; experiment: Cancer cell line proliferation (CellTiter-Glo), A-427; assay type: cell-based; conditions: Homo sapiens, A-427 cells, 72 hr treatment, read-out: A427 CTG (EC50)
In short: (§1)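 EC50 values come from CellTiter-Glo viability measured after 72 hr compound treatment at 37° C./5% CO2 with 0.5% final DMSO. Plating was at 4,000 cells/well with 72 hr growth before dosing, and compounds were serially diluted 3-fold from 20 μM down to 1.02 nM.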

[3] = tested on: AGS gastric carcinoma cells [heterozygous G12D]; experiment: Cancer cell line proliferation (CellTiter-Glo), AGS; assay type: cell-based; conditions: Homo sapiens, 72 hr treatment, read-out: AGS CTG (EC50)
In short: as §1

T1 sequence (P01116 1-188 isoform P01116-2 G12D): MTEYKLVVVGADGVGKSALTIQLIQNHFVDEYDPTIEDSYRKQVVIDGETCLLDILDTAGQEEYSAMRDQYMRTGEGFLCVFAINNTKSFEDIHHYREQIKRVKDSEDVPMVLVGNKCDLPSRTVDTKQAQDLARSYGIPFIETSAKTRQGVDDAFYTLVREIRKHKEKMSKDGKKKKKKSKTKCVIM

CC(C)c1cc(C(=O)N2Cc3ccc(CN(C)[C@H]4CN5CCC[C@@]5(COc5nc(N6CC7CCC(C6)N7)c6cnc(-c7cc(O)cc8ccccc78)c(F)c6n5)C4)cc3C2)c(O)cc1O [Compound 44]
IC50 (KRAS(G12D)/SOS1): < 100 nM
EC50 [1]: > 1000 nM
EC50 [2]: 100 to 1000 nM
EC50 [3]: 100 to 1000 nM

C#Cc1cccc2cccc(-c3ncc4c(N5CC6CCC(C5)N6)nc(OCCN5CCN(Cc6ccc7c(c6)CN(C(=O)c6cc(C(C)C)c(O)cc6O)C7)CC5)nc4c3F)c12 [Compound 14]
IC50 (KRAS(G12D)/SOS1): 100 to 1000 nM
EC50 [1]: 100 to 1000 nM
EC50 [2]: 100 to 1000 nM
EC50 [3]: 100 to 1000 nM

C#Cc1cccc2cccc(-c3ncc4c(N5CC6CCC(C5)N6)nc(OCCN5CCN(C(=O)C6CCN(Cc7ccc(-n8c(O)nnc8-c8cc(C(C)C)c(O)cc8O)cc7)CC6)CC5)nc4c3F)c12 [Compound 20]
IC50 (KRAS(G12D)/SOS1): 100 to 1000 nM
EC50 [1]: > 1000 nM
EC50 [2]: 100 to 1000 nM
EC50 [3]: 100 to 1000 nM

C#Cc1cccc2cccc(-c3ncc4c(N5CC6CCC(C5)N6)nc(OC[C@@H]5C[C@H](N6CCN(Cc7ccc(-n8c(O)nnc8-c8cc(C(C)C)c(O)cc8O)cc7)CC6)CN5C)nc4c3F)c12 [Compound 26]
IC50 (KRAS(G12D)/SOS1): < 100 nM
EC50 [1]: > 1000 nM
EC50 [2]: 100 to 1000 nM
EC50 [3]: 100 to 1000 nM

CCNC(=O)c1nnc(-c2cc(C(C)C)c(O)cc2O)n1-c1ccc(CN2CCN([C@H]3C[C@@H](COc4nc(N5CC6CCC(C5)N6)c5cnc(-c6ccccc6C(F)(F)F)c(F)c5n4)N(C)C3)CC2)cc1 [Compound 60]
IC50 (KRAS(G12D)/SOS1): > 1000 nM
EC50 [1]: 100 to 1000 nM
EC50 [2]: 100 to 1000 nM
EC50 [3]: < 100 nM

CC(C)c1cc(C(=O)N2Cc3ccc(CN4CCN([C@H]5C[C@@H](COc6nc(N7CC8CCC(C7)N8)c7cnc(-c8cccc9cccc(C#N)c89)c(F)c7n6)N(C)C5)CC4)cc3C2)c(O)cc1O [Compound 63]
IC50 (KRAS(G12D)/SOS1): 100 to 1000 nM
EC50 [1]: 100 to 1000 nM
EC50 [2]: < 100 nM
EC50 [3]: 100 to 1000 nM

CCc1cc(-c2nnc(C(=O)NC)n2-c2ccc(CN3CCN(C(=O)C4CCN([C@H]5C[C@@H](COc6nc(C7CC8CCC(C7)N8)c7cnc(-c8cccc9cccc(Cl)c89)c(F)c7n6)N(C)C5)CC4)CC3)cc2)c(O)cc1O (some centres unmarked) [Compound 9]
IC50 (KRAS(G12D)/SOS1): 100 to 1000 nM
EC50 [1]: > 1000 nM
EC50 [2]: > 1000 nM
EC50 [3]: 100 to 1000 nM

C#Cc1cccc2cccc(-c3ncc4c(N5CC6CCC(C5)N6)nc(OC[C@@H]5CC[C@H](CN6CCN(Cc7ccc(-n8c(O)nnc8-c8cc(C(C)C)c(O)cc8O)cc7)CC6)N5C)nc4c3F)c12 [Compound 15]
IC50 (KRAS(G12D)/SOS1): < 100 nM
EC50 [1]: > 1000 nM
EC50 [2]: 100 to 1000 nM
EC50 [3]: 100 to 1000 nM

CC(C)c1cc(-c2nnc(O)n2-c2ccc(CN3CCN([C@H]4C[C@@H](COc5nc(N6CC7CCC(C6)N7)c6cnc(-c7cc(O)cc8ccccc78)c(F)c6n5)N(C)C4)CC3)cc2)c(O)cc1O [Compound 33]
IC50 (KRAS(G12D)/SOS1): < 100 nM
EC50 [1]: > 1000 nM
EC50 [2]: > 1000 nM
EC50 [3]: 100 to 1000 nM

CCNC(=O)c1nnc(-c2cc(C(C)C)c(O)cc2O)n1-c1ccc(CN(C)[C@@H]2CN3CCC[C@@]3(COc3nc(N4CC5CCC(C4)N5)c4cnc(-c5cc(O)cc6ccccc56)c(F)c4n3)C2)cc1 [Compound 41]
IC50 (KRAS(G12D)/SOS1): < 100 nM
EC50 [1]: 100 to 1000 nM
EC50 [2]: > 1000 nM
EC50 [3]: 100 to 1000 nM

CC(C)c1cc(C(=O)N2Cc3ccc(CN4CCN(C[C@H]5CC[C@@H](COc6nc(N7CC8CCC(C7)N8)c7cnc(-c8cc(O)cc9ccccc89)c(F)c7n6)N5C)CC4)cc3C2)c(O)cc1O [Compound 64]
IC50 (KRAS(G12D)/SOS1): < 100 nM
EC50 [1]: 100 to 1000 nM
EC50 [2]: 100 to 1000 nM
EC50 [3]: 100 to 1000 nM

CC(C)c1cc(C(=O)N2Cc3ccc(CN4CCC(C(=O)N(C)[C@H]5CN6CCC[C@@]6(COc6nc(N7CC8CCC(C7)N8)c7cnc(-c8cc(O)cc9ccccc89)c(F)c7n6)C5)CC4)cc3C2)c(O)cc1O [Compound 49]
IC50 (KRAS(G12D)/SOS1): < 100 nM
EC50 [1]: > 1000 nM
EC50 [2]: 100 to 1000 nM
EC50 [3]: 100 to 1000 nM

CCNC(=O)c1nnc(-c2cc(C(C)C)c(O)cc2O)n1-c1ccc(CN2CCN([C@H]3C[C@@H](COc4nc(N5CC6CNC(C6)C5)c5cnc(-c6cccc7cccc(C)c67)c(F)c5n4)N(C)C3)CC2)cc1 (some centres unmarked) [Compound 69]
IC50 (KRAS(G12D)/SOS1): > 1000 nM
EC50 [1]: > 1000 nM
EC50 [2]: 100 to 1000 nM
EC50 [3]: 100 to 1000 nM

CC(C)c1cc(C(=O)N2Cc3ccc(CN4CCC(C(=O)N5CCN(C[C@H]6CC[C@@H](COc7nc(N8CC9CCC(C8)N9)c8cnc(-c9cc(O)cc%10ccccc9%10)c(F)c8n7)N6C)CC5)CC4)cc3C2)c(O)cc1O [Compound 70]
IC50 (KRAS(G12D)/SOS1): < 100 nM
EC50 [1]: > 1000 nM
EC50 [2]: 100 to 1000 nM
EC50 [3]: 100 to 1000 nM

CCNC(=O)c1nnc(-c2cc(C(C)C)c(O)cc2O)n1-c1ccc(CN2CCN(C[C@H]3CC[C@@H](COc4nc(N5CC6CCC(C5)N6)c5cnc(-c6cc(O)cc7ccccc67)c(F)c5n4)N3C)CC2)cc1 [Compound 65]
IC50 (KRAS(G12D)/SOS1): < 100 nM
EC50 [1]: 100 to 1000 nM
EC50 [2]: < 100 nM
EC50 [3]: < 100 nM

CCNC(=O)c1nnc(-c2cc(C(C)C)c(O)cc2O)n1-c1ccc(CN2CCN([C@H]3C[C@@H](COc4nc(N5CC6CCC(C5)N6)c5cnc(-c6cccc7cccc(C#N)c67)c(F)c5n4)N(C)C3)CC2)cc1 [Compound 59]
IC50 (KRAS(G12D)/SOS1): > 1000 nM
EC50 [1]: 100 to 1000 nM
EC50 [2]: 100 to 1000 nM
EC50 [3]: < 100 nM

C#Cc1cccc2cccc(-c3ncc4c(N5CC6CCC(C5)N6)nc(OCCN5CCN(Cc6ccc(-n7c(O)nnc7-c7cc(C(C)C)c(O)cc7O)cc6)CC5)nc4c3F)c12 [Compound 13]
IC50 (KRAS(G12D)/SOS1): 100 to 1000 nM
EC50 [1]: > 1000 nM
EC50 [2]: 100 to 1000 nM
EC50 [3]: 100 to 1000 nM

CCNC(=O)c1nnc(-c2cc(C(C)C)c(O)cc2O)n1-c1ccc(CN(C)[C@@H]2CN3CCC[C@]3(COc3nc(N4CC5CCC(C4)N5)c4cnc(-c5cc(O)cc6ccccc56)c(F)c4n3)C2)cc1 [Compound 40]
IC50 (KRAS(G12D)/SOS1): < 100 nM
EC50 [1]: > 1000 nM
EC50 [2]: 100 to 1000 nM
EC50 [3]: 100 to 1000 nM

C#Cc1cccc2cccc(-c3ncc4c(N5CC6CCC(C5)N6)nc(OCC5(CN6CCN(Cc7ccc(-n8c(C(=O)NCC)nnc8-c8cc(C(C)C)c(O)cc8O)cc7)CC6)CC5)nc4c3F)c12 [Compound 12]
IC50 (KRAS(G12D)/SOS1): < 100 nM
EC50 [1]: 100 to 1000 nM
EC50 [2]: < 100 nM
EC50 [3]: < 100 nM

CCNC(=O)c1nnc(-c2cc(C(C)C)c(O)cc2O)n1-c1ccc(CN2CCC(C(=O)N3CCN([C@H]4C[C@@H](COc5nc(N6CC7CCC(C6)N7)c6cnc(-c7cc(O)cc8ccccc78)c(F)c6n5)N(C)C4)CC3)CC2)cc1 [Compound 38]
IC50 (KRAS(G12D)/SOS1): < 100 nM
EC50 [1]: 100 to 1000 nM
EC50 [2]: 100 to 1000 nM
EC50 [3]: 100 to 1000 nM

CCNC(=O)c1nnc(-c2cc(C(C)C)c(O)cc2O)n1-c1ccc(CN2CCC(C(=O)N3CCN([C@H]4C[C@@H](COc5nc(N6CC7CCC(C6)N7)c6cnc(-c7cccc8cccc(C)c78)c(F)c6n5)N(C)C4)CC3)CC2)cc1 [Compound 24]
IC50 (KRAS(G12D)/SOS1): 100 to 1000 nM
EC50 [1]: 100 to 1000 nM
EC50 [2]: < 100 nM
EC50 [3]: < 100 nM

CCNC(=O)c1nnc(-c2cc(C(C)C)c(O)cc2O)n1-c1ccc(CN2CCN([C@H]3C[C@@H](COc4nc(N5CC6CCC(C5)N6)c5cnc(-c6cccc(F)c6C)c(F)c5n4)N(C)C3)CC2)cc1 [Compound 62]
IC50 (KRAS(G12D)/SOS1): > 1000 nM
EC50 [1]: 100 to 1000 nM
EC50 [2]: < 100 nM
EC50 [3]: < 100 nM

C#Cc1cccc2cc(O)cc(-c3ncc4c(N5CC6CCC(C5)N6)nc(OCC5(CN6CCC(OC7CCN(Cc8ccc(-n9c(C(=O)NC(C)C(F)(F)F)nnc9-c9cc(C(C)C)c(O)cc9O)cc8)CC7)CC6)CC5)nc4c3F)c12 (centres unmarked) [Compound 140]
IC50 (KRAS(G12D)/SOS1): < 100 nM
EC50 [1]: < 100 nM
EC50 [2]: < 100 nM
EC50 [3]: < 100 nM
